Where two headings read alike, the source gives them in different places. Square brackets hold non-standard residues; d marks the D form. Peptide text beside a SMILES is read from it. * marks the point of attachment. Dolaproine = CO[C@@H]([C@@H]1CCCN1)[C@@H](C)C(=O)O; Dil = CC[C@H](C)[C@H](NC)[C@@H](CC(=O)O)OC; X1 = C[C@@H](N*)[C@@H](O)c1ccccc1; NMeV = CN[C@H](C(=O)O)C(C)C
What was measured:
[1] = cited from earlier work; for steady-state concentrations reached after: 1.25 mg/kg Q3W regimen; for exposure (AUC) in mild, moderate or severe renal impairment compared to normal renal function: 1.25 mg/kg enfortumab; for elimination half-life / mean clearance (CL): after enfortumab dosing; for mean clearance (CL): patients
hERG = hERG (Homo sapiens, UniProt Q12809); assay: hERG assay (in vitro); assay type: cell-based; settings: read-out: IC50 on the potassium current
in vivo = assay: in vivo; set-up: species or system dogs; settings: dog
[2] = neurological functional observation battery and respiratory evaluations; assay type: in vivo; settings: rats, doses up to 25 mg/kg
Caco-2 cell lines = assay: bidirectional permeability study with Caco-2 cell lines; assay type: in vitro ADME; settings: Caco-2 bidirectional
P-glycoprotein (P-gp) = biological target: T1, P-glycoprotein (P-gp) (Homo sapiens, UniProt P08183); assay: P-gp substrate assessment in Caco-2 bidirectional permeability study; assay type: in vitro ADME
T1 construct: In a bidirectional permeability study with Caco-2 cell lines; endogenous in cells; host or cells: Caco-2
T1 sequence (P08183 whole entry): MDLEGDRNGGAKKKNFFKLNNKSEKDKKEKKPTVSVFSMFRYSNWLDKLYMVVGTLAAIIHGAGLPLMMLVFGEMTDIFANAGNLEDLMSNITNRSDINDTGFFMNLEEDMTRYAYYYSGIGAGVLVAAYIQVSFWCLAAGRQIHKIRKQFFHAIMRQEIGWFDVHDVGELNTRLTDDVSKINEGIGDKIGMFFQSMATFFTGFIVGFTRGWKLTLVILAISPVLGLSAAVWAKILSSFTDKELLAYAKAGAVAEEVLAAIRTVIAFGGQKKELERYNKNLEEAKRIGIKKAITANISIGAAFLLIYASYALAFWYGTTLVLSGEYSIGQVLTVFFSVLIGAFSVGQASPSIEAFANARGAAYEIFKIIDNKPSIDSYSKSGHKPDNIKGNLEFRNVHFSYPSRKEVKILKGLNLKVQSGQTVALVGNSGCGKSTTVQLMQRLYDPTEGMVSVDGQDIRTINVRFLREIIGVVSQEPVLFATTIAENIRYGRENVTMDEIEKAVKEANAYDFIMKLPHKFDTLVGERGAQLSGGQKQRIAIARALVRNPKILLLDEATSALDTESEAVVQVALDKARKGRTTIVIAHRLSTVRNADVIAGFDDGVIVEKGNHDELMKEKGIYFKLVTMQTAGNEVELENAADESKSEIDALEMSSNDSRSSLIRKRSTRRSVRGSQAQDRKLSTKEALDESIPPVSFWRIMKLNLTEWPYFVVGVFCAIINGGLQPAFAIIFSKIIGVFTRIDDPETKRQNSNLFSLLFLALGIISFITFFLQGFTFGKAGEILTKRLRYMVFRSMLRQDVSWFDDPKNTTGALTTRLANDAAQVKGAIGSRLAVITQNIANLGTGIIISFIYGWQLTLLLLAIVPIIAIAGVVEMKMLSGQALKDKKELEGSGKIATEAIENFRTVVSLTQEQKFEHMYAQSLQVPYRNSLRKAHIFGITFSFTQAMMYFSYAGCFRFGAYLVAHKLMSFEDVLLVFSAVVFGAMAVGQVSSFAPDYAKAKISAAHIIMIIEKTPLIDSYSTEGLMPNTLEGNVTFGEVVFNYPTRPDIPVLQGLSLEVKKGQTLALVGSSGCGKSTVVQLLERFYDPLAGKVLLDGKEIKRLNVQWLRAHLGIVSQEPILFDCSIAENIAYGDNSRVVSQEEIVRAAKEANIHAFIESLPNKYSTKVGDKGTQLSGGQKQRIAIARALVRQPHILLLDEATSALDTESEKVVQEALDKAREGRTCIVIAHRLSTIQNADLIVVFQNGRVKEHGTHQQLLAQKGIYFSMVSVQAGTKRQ

[3] = biological target: T2, Breast Cancer Resistance Protein (BCRP) (Homo sapiens, UniProt Q9UNQ0); assay: BCRP substrate assessment in Caco-2 bidirectional permeability study; assay type: in vitro ADME
T2 construct: In a bidirectional permeability study with Caco-2 cell lines; endogenous in cells; host or cells: Caco-2

P-gp = biological target: T3, P-gp (Homo sapiens, UniProt P08183); assay type: in vitro ADME
T3 construct: In a bidirectional permeability study with Caco-2 cell lines; endogenous in cells; host or cells: Caco-2
T3 sequence (P08183 whole entry): as above

BCRP = biological target: T4, BCRP (Homo sapiens, UniProt Q9UNQ0); assay type: in vitro ADME
T4 construct: In a bidirectional permeability study with Caco-2 cell lines; endogenous in cells; host or cells: Caco-2

human plasma proteins = assay type: in vitro ADME
cytochrome P-450 = assay type: in vitro ADME; settings: human
CYP2C8 = CYP2C8 (Homo sapiens, UniProt P10632); assay: direct CYP inhibition; assay type: in vitro ADME
Sequence of CYP2C8 (P10632 whole entry): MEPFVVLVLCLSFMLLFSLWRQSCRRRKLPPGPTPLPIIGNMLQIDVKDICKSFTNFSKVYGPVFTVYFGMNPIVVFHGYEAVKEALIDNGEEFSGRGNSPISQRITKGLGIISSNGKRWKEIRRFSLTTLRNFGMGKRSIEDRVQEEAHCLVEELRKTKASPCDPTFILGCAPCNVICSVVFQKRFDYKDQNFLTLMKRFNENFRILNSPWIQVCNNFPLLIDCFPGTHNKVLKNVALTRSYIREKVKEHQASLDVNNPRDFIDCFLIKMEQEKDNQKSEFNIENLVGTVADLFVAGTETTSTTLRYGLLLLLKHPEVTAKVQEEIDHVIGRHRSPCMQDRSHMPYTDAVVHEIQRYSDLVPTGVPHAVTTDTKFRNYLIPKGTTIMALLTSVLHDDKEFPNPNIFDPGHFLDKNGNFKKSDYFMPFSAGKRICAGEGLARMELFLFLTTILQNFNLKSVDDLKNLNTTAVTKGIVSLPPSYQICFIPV

CYP2C9 = CYP2C9 (Homo sapiens, UniProt P11712); assay: direct CYP inhibition; assay type: in vitro ADME
Sequence of CYP2C9 (P11712 whole entry): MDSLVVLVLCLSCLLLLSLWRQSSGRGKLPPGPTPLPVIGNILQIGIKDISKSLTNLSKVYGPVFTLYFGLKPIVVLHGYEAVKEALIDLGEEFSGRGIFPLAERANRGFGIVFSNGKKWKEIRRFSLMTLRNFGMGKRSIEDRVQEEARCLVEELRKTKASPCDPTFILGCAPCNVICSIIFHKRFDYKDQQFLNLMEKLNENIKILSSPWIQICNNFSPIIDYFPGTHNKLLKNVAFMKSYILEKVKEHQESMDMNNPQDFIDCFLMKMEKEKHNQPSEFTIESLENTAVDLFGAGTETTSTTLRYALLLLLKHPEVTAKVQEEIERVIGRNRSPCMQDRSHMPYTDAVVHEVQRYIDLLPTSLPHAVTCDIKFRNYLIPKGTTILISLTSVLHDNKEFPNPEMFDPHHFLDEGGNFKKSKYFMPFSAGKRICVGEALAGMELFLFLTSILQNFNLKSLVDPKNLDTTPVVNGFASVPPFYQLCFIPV

CYP2C19 = CYP2C19 (Homo sapiens, UniProt P33261); assay: direct CYP inhibition; assay type: in vitro ADME
CYP2D6 = CYP2D6 (Homo sapiens, UniProt P10635); assay: direct CYP inhibition; assay type: in vitro ADME
Sequence of CYP2D6 (P10635 whole entry): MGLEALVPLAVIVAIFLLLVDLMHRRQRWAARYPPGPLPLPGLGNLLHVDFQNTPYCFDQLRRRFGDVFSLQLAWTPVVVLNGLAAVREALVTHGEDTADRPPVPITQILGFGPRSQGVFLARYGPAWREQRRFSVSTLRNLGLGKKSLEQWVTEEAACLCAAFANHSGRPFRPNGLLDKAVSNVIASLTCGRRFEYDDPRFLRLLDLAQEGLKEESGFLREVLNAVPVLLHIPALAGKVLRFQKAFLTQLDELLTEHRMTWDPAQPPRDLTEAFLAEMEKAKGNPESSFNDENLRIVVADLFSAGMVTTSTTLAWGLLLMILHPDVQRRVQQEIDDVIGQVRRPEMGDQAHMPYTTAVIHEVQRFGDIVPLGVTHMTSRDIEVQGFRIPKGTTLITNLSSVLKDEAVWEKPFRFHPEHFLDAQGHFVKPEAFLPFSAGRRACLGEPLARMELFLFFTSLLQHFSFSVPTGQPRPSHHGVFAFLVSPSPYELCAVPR

CYP2B6 = CYP2B6 (Homo sapiens, UniProt P20813); assay: direct CYP inhibition; assay type: in vitro ADME
Sequence of CYP2B6 (P20813 whole entry): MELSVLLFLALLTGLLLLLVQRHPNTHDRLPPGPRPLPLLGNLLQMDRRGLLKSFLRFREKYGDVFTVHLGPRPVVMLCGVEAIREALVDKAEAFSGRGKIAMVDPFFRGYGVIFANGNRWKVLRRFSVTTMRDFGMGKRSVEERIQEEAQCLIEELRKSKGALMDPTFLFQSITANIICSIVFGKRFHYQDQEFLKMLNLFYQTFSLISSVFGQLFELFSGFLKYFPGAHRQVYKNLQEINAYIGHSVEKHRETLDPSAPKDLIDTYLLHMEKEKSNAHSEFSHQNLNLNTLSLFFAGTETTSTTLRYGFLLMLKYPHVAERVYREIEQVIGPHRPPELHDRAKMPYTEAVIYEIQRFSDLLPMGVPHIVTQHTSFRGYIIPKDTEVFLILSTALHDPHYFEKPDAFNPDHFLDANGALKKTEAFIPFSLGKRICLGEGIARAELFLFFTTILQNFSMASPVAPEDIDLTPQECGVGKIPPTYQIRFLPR

CYP1A2 = CYP1A2 (Homo sapiens, UniProt P05177); assay: direct CYP inhibition; assay type: in vitro ADME
Sequence of CYP1A2 (P05177 whole entry): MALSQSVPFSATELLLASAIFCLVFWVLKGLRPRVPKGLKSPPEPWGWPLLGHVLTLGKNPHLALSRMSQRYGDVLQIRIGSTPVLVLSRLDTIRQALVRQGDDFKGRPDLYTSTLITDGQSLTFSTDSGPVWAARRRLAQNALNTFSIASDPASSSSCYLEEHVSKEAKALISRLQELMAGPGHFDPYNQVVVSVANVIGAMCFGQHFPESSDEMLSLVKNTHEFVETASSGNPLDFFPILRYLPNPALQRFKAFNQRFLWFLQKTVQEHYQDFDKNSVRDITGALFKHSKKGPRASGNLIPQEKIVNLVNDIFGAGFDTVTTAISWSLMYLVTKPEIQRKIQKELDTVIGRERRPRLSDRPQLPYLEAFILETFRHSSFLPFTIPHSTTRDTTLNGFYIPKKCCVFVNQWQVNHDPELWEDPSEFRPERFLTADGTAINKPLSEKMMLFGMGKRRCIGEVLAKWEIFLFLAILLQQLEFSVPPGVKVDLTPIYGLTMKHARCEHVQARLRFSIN

CYP2A6 = CYP2A6 (Homo sapiens, UniProt P11509); assay: direct CYP inhibition; assay type: in vitro ADME
CYP2E1 = CYP2E1 (Homo sapiens, UniProt P05181); assay: direct CYP inhibition; assay type: in vitro ADME
CYP enzymes = assay: time- or metabolism-dependent CYP inhibition; assay type: in vitro ADME
PD-L1 on tumor cells = assay: PD-L1 expression on tumor cells in vitro and in vivo; assay type: cell-based
Excerpt: (§1) Receptor tyrosine kinases (RTKs) are key regulators of signaling pathways leading to cell growth, survival, and migration. These kinases are dysregulated in many cancers through overexpression, genetic alteration or co-expression with high affinity ligands. Multiple sitravatinib RTK targets are genetically altered in a variety of cancers and act as oncogenic drivers, promoting cancer development and progression.

[4] = system: systemic/spleen T lymphocytes and MDSCs; assay: pilot studies in syngeneic mouse tumor models (immune cells); assay type: in vivo
Excerpt: as §1

[5] = pharmacokinetics after single dose of sitravatinib free base capsules; assay type: in vivo
[6] = system: MET, Axl, MERTK, VEGFR family, PDGFR family, KIT, FLT3, Trk family, RET, DDR2, and selected Eph family members
[7] = system: RET, CBL, CHR4q12, DDR and Trk; settings: cited from earlier work
[8] = system: human tumor xenograft models; assay: human tumor xenograft models; settings: mice, broad spectrum of models
target RTKs [9] = assay: cell-based assays of phosphorylation and kinase dependent function
target RTKs [10] = assay: oncogenic functions: MET-dependent cell viability and migration, endothelial tube formation and angiogenesis; settings: endothelial tube formation, angiogenesis
Urothelial Carcinoma [11] = settings: EV-201; cited from earlier work
Urothelial Carcinoma [12] = settings: cited from earlier work
Nectin-4 = biological target: T5, Nectin-4 (Homo sapiens, UniProt Q96NY8); settings: cited from earlier work
T5 construct: host or cells: cells that express Nectin-4
T5 sequence (Q96NY8 32-510): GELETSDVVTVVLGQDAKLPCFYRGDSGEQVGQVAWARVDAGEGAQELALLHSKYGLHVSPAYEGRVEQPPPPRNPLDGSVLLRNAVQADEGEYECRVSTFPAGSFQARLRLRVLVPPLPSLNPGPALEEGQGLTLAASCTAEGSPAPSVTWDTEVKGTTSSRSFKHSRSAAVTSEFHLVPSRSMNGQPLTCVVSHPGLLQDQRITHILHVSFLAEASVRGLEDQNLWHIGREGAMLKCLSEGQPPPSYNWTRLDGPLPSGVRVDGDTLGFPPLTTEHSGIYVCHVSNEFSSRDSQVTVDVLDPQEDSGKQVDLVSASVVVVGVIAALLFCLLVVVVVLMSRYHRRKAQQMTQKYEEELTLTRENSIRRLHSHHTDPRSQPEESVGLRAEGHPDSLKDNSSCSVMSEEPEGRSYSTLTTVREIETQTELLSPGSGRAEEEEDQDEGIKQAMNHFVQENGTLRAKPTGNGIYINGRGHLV

[13] = cited from earlier work
Urothelial Carcinoma [14] = settings: cited from earlier work; remark: listed apart in the source
Urothelial Carcinoma [15] = settings: cited from earlier work; remark: listed apart in the source
[16] = KEYNOTE-052, overall population
[17] = KEYNOTE-052, patients with CPS ≥10

CC[C@H](C)[C@@H]([C@@H](CC(=O)N1CCC[C@H]1[C@H](OC)[C@@H](C)C(=O)N[C@H](C)[C@@H](O)c1ccccc1)OC)N(C)C(=O)[C@@H](NC(=O)[C@@H](NC)C(C)C)C(C)C [MMAE, monomethyl auristatin E] (H-[NMeV]V[Dil][Dolaproine]-X1)
steady-state concentrations reached after [1]: 1 treatment cycle
exposure (AUC) in mild, moderate or severe renal impairment compared to normal renal function [1]: No significant differences
elimination half-life [1]: 57.6 h
accumulation following repeat administration of enfortumab ([1]; in vivo): minimal accumulation
time until which plasma concentrations increased after enfortumab dosing ([1]; in vivo): ~2 days
mean clearance (CL) [1]: 2.7 L/h
AUC increase in patients with mild hepatic impairment compared to normal hepatic function ([1]; population PK, n=31): 48%

COCCNCc1ccc(-c2cc3nccc(Oc4ccc(NC(=O)C5(C(=O)Nc6ccc(F)cc6)CC5)cc4F)c3s2)nc1 [sitravatinib, N-(3-Fluoro-4-(2-(5-((2-methoxyethylamino)methyl)pyridin-2-yl)thieno[3,2-b]pyridin-7-yloxy)phenyl)-N-(4-fluorophenyl)cyclopropane-1,1-dicarboxamide]
IC50 (hERG): 600 nM
vascular pressures (in vivo): Minor increases
concentration at 6 hr (in vivo; 4 mg/kg): 72 ng/mL
neurological functional observation battery and respiratory evaluations (tidal volume, respiration rate, minute volume) [2]: did not reveal any sitravatinib related effects
permeability classification (Caco-2 cell lines): highly permeable
substrate of P-gp (P-glycoprotein (P-gp)): not a substrate
substrate of BCRP [3]: not a substrate
IC50 (P-gp): 838 nM
IC50 (BCRP): 1510 nM
bound to human plasma proteins (human plasma proteins): 98.6%
CYP enzymes involved in metabolism (cytochrome P-450): multiple enzymes, including CYP 1A2, 2A6, 2B6, 2C8, 2C9, 2D6, 2E1, and 3A4 are involved
IC50 (CYP2C8): 2900 nM
IC50 (CYP2C9): 11000 nM
IC50 (CYP2C19): 10000 nM
IC50 (CYP2D6): 1900 nM
IC50 (CYP2B6): > 20000 nM
inhibition at 20 µM (CYP2B6; human, highest concentration evaluated (20 μM)): ~50%
direct inhibition of CYP1A2 (CYP1A2): little or no evidence
direct inhibition of CYP2A6 (CYP2A6): little or no evidence
direct inhibition of CYP2E1 (CYP2E1): little or no evidence
time- or metabolism-dependent inhibition of any of the CYP enzymes evaluated (CYP enzymes): little or no evidence
expression of PD-L1 on tumor cells (PD-L1 on tumor cells): increase expression of PD-L1
systemic MDSCs [4]: reduces the number
systemic/spleen CD4+ and CD8+ T lymphocytes [4]: increases the proliferation and fraction
dose proportionality of Cmax and AUC ([5]; doses up to 200 mg): dose proportional
half-life ([5]; human, in vivo, oral administration, read-out: mean elimination half life): 42 to 58 h
inhibition of kinase activity ([6]; biochemical assays): potent, concentration-dependent inhibition
potency against intended clinical targets ([6]; generally): less than 0.1 μM
inhibition of a closely related spectrum of tyrosine kinases [7]: potent inhibition
anti-tumor activity in human xenograft tumor models [8]: anti tumor efficacy
anti-tumor activity in human xenograft tumor models ([8]; listed as Sitravatinib): tumor regression
phosphorylation and kinase dependent function (target RTKs [9]): inhibited phosphorylation and kinase dependent function
oncogenic functions associated with target RTKs (target RTKs [10]): inhibited oncogenic functions

enfortumab: Nectin-4 directed ADC: fully human anti-Nectin-4 IgG1 kappa antibody (AGS-22C3) conjugated to MMAE via protease-cleavable maleimidocaproyl valine-citrulline linker
steady-state concentrations reached after [1]: 1 treatment cycle
exposure (AUC) in mild, moderate or severe renal impairment compared to normal renal function [1]: No significant differences
dose proportionality of PK ([1]; 0.5 to 1.25 mg/kg, days 1, 8, 15 of 28-day cycle): linear dose-proportional PK
elimination half-life [1]: 81.6 h
estimated mean volume of distribution at steady state (Vss) ([1]; following administration of enfortumab): 11 L
accumulation following repeat administration of enfortumab ([1]; in vivo): minimal accumulation
time of peak concentrations ([1]; intravenous infusion): end of infusion
mean clearance (CL) [1]: 0.10 L/h
differences in pharmacokinetics based on age, sex, or race/ethnicity ([1]; population PK): no clinically significant differences
complete response rate (Urothelial Carcinoma [11]): 12%
median DOR (Urothelial Carcinoma [11]): 7.6 months
median overall survival (Urothelial Carcinoma [11]): 11.7 months
overall ORR as confirmed by central review (Urothelial Carcinoma [11]): 44%
overall ORR as confirmed by central review (Urothelial Carcinoma [12]; EV-103 (pembrolizumab and enfortumab used in combination)): 73%
median DOR (Urothelial Carcinoma [12]; EV-103, median follow-up 10.4 months): not reached
12-month overall survival rate (Urothelial Carcinoma [12]; EV-103): 82%
complete response rate (Urothelial Carcinoma [12]; EV-103): 16%
median overall survival (Urothelial Carcinoma [12]; EV-103): not reached
affinity of binding to cells that express Nectin-4 (Nectin-4): high affinity

pembrolizumab: humanized monoclonal IgG4 kappa antibody that blocks the interaction between PD-1 and its ligands, PD-L1 and PD-L2
steady-state exposure versus dose ([13]; 2 to 10 mg/kg Q3W): increased dose proportionally
systemic accumulation ([13]; Q3W regimen): approximately 2.1 fold
geometric mean clearance (CL) ([13]; population PK, 2993 patients with various cancers): 195 mL/day
geometric mean volume of distribution at steady state (Vss) ([13]; population PK): 6.0 L
OS versus chemotherapy in subgroups (Urothelial Carcinoma [14]; KEYNOTE-045, all subgroups examined): OS benefit over chemotherapy
ORR as confirmed by central review (Urothelial Carcinoma [14]; KEYNOTE-045, patients with CPS≥10): 20%
overall ORR as confirmed by central review (Urothelial Carcinoma [14]; KEYNOTE-045, pembrolizumab group): 21%
median DOR (Urothelial Carcinoma [14]; KEYNOTE-045): not reached
median overall survival (Urothelial Carcinoma [14]; KEYNOTE-045): 10.1 months
median DOR (Urothelial Carcinoma [15]; [16]): 30.1 months
overall ORR as confirmed by central review (Urothelial Carcinoma [15]; [16]): 29%
median overall survival (Urothelial Carcinoma [15]; KEYNOTE-052, overall): 11.3 months
ORR as confirmed by central review (Urothelial Carcinoma [15]; [17]): 47%
median DOR (Urothelial Carcinoma [15]; [17]): not reached
median overall survival (Urothelial Carcinoma [15]; [17]): 18.5 months

From patent publication US20230321062A1, “COMBINATION THERAPIES” (Mirati Therapeutics, Inc., priority 2020, published 2023)
